Data taken from US20030176351A1, “Peptides and peptide analogues designed from a diabetes-associated autoantigen, and methods for their use in the treatment and prevention of diabetes” (priority 1999, published 2003).
Like-named read-outs stand apart in the source and are kept apart here. Values belong to the molecule of their own block, whether it stands above or below them.

How the values were obtained:
[1] = system: T cells from Patient #6211; test: γIFN response of serially expanded T cells from Patient #6211 restimulated with GAD65 peptides and autologous APC; type: cell-based, human; settings: T cells from Patient #6211 expanded in serial culture, autologous APC
Experimental: 10^5 thawed and irradiated DRB1*0404, DRB1*0405, or control (non-DR4) peripheral blood lymphocytes (PBL) in a volume of 100 μl were added to wells of 96 V-bottom plates containing peptide or medium and allowed to incubate for 2-3 hours at which time 4×10^4 T cells were added for a total volume of 200 μl-250 μl. At 20-24 hours of coculture, supernatants were harvested for cytokine determination and the wells replenished with fresh medium. At 48 hours, wells were radiolabeled with 1 μCi H^3-thymidine and cultured for an additional 18 hr. The plates were harvested on a TomTec Manual Mach III harvester and incorporated thymidine (as cpm) was determined by liquid spectroscopy on a Wallac Microbeta LSC.
Traditional sandwich ELISA were performed to test the supernatants for human γIFN, using matched antibody sets obtained from Endogen. The plates were read at 405 nm on a Microplate reader (Bio-Tek). The concentration of cytokine was estimated from standard curves using linear regression.
T cells from Patient #6211 were expanded in serial culture by restimulation with GAD65 peptides incubated with autologous APC. Specific T cell responses were present for both peptides 553-572 (53 pg/ml γIFN) and 555-567 (51 pg/ml γIFN), but not peptide 569-585 (5 pg/ml γIFN), localizing the minimal epitope to the 555-567 region. T cell clones were derived by expansion of this culture; proliferation, and cytokine response profiles for CD4^+ T cell clones BRI.4-10 and BRI.4-11 are shown in FIGS. 1A and 1B.

DR4 molecules = DR4 molecules (Homo sapiens, UniProt P01903+P01911, A100K/A169T/F76Y/I96L/K127E/L162R/M171V/N62H/P40V/Q125Y/R42H/S133A/S149N/S66Y/V115G/V209L/W38E); test: standard DR4-peptide fluorescent binding assay
T cell clone BRI.4-10 = test: prepulse antagonism assay, response to GAD65 555-567, clone BRI.4-10; type: cell-based, human
T cell clone BRI.4-11 = test: prepulse antagonism assay, response to GAD65 555-567, clone BRI.4-11; type: cell-based, human
DR4 = settings: Wicker et al, 1996; cited from earlier work

Molecule: 553-572: GAD65 peptide of residues 553-572 (KVNFFRMVISNPAATHQDID; UniProt Q05329 553-572, looked up, fragment)
γIFN, specific T cell response [1]: 53 pg/mL

Molecule: VNFFRMVISNPAATHQD [GAD 554-570]
IC50 (DR4 molecules; read-out: peptide binding: concentration of peptide giving 50% inhibition of a standard DR4-peptide fluorescent binding assay): 600 nM

IC50 (DR4 molecules): 400 nM
Molecule: CSCC[C@H](NC(=O)[C@H](CCCNC(=N)N)NC(=O)[C@H](Cc1ccccc1)NC(=O)[C@H](Cc1ccccc1)NC(=O)[C@@H](N)CC(N)=O)C(=O)N[C@H](C(=O)N[C@@H](CCSC)C(=O)N[C@@H](CO)C(=O)N[C@@H](CC(N)=O)C(=O)N1CCC[C@H]1C(=O)N[C@@H](C)C(=O)N[C@@H](C)C(=O)N[C@H](C(=O)O)[C@@H](C)O)C(C)C [561 M]
reduction of T cell proliferative response (T cell clone BRI.4-10; clone BRI.4-10, APC pre-pulsed with agonist peptide 555-567): 80%
antagonism of γIFN cytokine response (in words) (T cell clone BRI.4-10; clone BRI.4-10, APC pre-pulsed with agonist peptide 555-567, FIG. 2B): similarly antagonized
antagonism of T cell responses (proliferation and γIFN, FIGS. 2C and 2D) (T cell clone BRI.4-11; clone BRI.4-11, APC pre-pulsed with agonist peptide 555-567): more than 90%

Molecule: 569-585: GAD65 peptide of residues 569-585 (QDIDFLIEEIERLGQDL; UniProt Q05329 569-585, looked up, fragment)
γIFN, specific T cell response [1]: 5 pg/mL

Molecule: CSCC[C@H](NC(=O)[C@H](CCCNC(=N)N)NC(=O)[C@H](Cc1ccccc1)NC(=O)[C@H](Cc1ccccc1)NC(=O)[C@@H](N)CC(N)=O)C(=O)N[C@H](C(=O)N[C@@H](CC(C)C)C(=O)N[C@@H](CO)C(=O)N[C@@H](CC(N)=O)C(=O)N1CCC[C@H]1C(=O)N[C@@H](C)C(=O)N[C@@H](C)C(=O)N[C@H](C(=O)O)[C@@H](C)O)C(C)C [561 L]
antagonism of proliferative response (in words) (T cell clone BRI.4-11; clone BRI.4-11, highest concentration tested, APC pre-pulsed with agonist peptide): partially antagonized

Molecule: CC[C@H](C)[C@H](NC(=O)[C@@H](NC(=O)[C@H](CCSC)NC(=O)[C@H](CCCNC(=N)N)NC(=O)[C@H](Cc1ccccc1)NC(=O)[C@H](Cc1ccccc1)NC(=O)[C@@H](N)CC(N)=O)C(C)C)C(=O)N[C@@H](CO)C(=O)N[C@@H](CC(N)=O)C(=O)N1CCC[C@H]1C(=O)N[C@@H](C)C(=O)N[C@@H](C)C(=O)N[C@H](C(=O)O)[C@@H](C)O [555-567]
γIFN, specific T cell response [1]: 51 pg/mL

Molecule: 554-566: GAD65 554-566 sequence, DR4-binding peptide of Wicker et al (VNFFRMVISNPAA; UniProt Q05329 554-566, looked up, fragment)
DR4 binding avidity among GAD65 peptides (DR4): most avid binding peptide identified
